Measured values reported in patent US5047402A, “Cyclic amides as medicaments” (ICI Americas Inc., priority 1989, dated 1991).

Molecular target: T1, LTD4 /E4 receptors (Cavia porcellus, UniProt Q2NNR5)
T1 construct: membrane fractions, containing the LTD4 /E4 receptors, are prepared from guinea-pig lung parenchyma; from tissue; host or cells: guinea-pig lung parenchyma membrane fractions
T1 sequence (Q2NNR5 1-340): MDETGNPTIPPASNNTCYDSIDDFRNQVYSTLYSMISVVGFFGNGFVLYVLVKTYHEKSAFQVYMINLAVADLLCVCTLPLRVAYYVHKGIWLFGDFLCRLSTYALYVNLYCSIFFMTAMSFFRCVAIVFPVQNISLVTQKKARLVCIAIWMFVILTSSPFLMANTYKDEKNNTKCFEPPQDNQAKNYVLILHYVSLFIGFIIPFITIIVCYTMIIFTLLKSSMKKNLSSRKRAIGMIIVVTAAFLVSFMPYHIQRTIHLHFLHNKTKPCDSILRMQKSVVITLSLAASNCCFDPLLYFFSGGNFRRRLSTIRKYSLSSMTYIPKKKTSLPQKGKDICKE
Assay: receptor-ligand binding assay with 3H-LTD4 on guinea-pig lung parenchyma membrane fractions
Details: 1nM 3H-LTD4, 30 minutes at 22° C., Ki calculated from IC50 by the Cheng-Prusoff equation
Description: According to this procedure, membrane fractions, containing the LTD4 /E4 receptors, are prepared from guinea-pig lung parenchyma and incubated for 30 minutes at 22° C. with 1nM ^3 H-LTD4 in the absence or presence of tested antagonist. Specific binding, determined under conditions that prevent enzymatic metabolism of ^3 H-LTD4, is the net result of total ^3 H-LTD4 binding minus nonspecific binding determined in the presence of 1-2000 fold excess unlabelled LTD^4. Each assay is done in duplicate and results (Ki values) are typically a mean of several such determinations in individual receptor batches.
The % inhibition by a tested antagonist, relative to control binding (vehicle alone), is expressed as a fraction of log[antagonist] concentration (in molar units) and the half-maximal inhibition (IC50) determined by computerized non-linear least-square analysis. The binding constant (Ki) is then calculated from IC50 by the Cheng-Prusoff equation: [formula] where [L] is ^3 H-LTD4 concentraton and Kd is the affinity constant of LTD4 to this receptor, determined separately for each batch. (Biochem. Pharmacol. 22: 3099-3108, 1973).

SMILES: CCCN1CCC(Cc2ccc3c(c2)c(Cc2ccc(C(=O)NS(=O)(=O)c4ccccc4C)cc2OC)cn3CCC)C1=O (stereo not shown) [Example 1, 3-Methoxy-N-(2-methylphenylsulfonyl)-4-[1-propyl-5-(1-propyl-2-oxopyrrolidin-3-ylmethyl)indol-3-ylmethyl]benzamide]
- Ki: 1 nM
